How the values were obtained:
Format in all cases: in vivo
[1] = tested on: Scirpus juncoides; assay: Herbicidal effect on paddy field weeds of post-emergence stage (Post), Test Example 2; conditions: one-leaf stage, 1000 g/ha as active ingredient, examined after 21 days
Summary of the method: (§1)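 Post-emergence paddy test: formulated compound added to 5 cm standing water at 1000 g/ha a.i. when weeds reached one-leaf stage in clay loam pots in greenhouse. Growth inhibition rated 21 days later versus untreated control on a 0 (0%) to 5 (100%) scale.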

[2] = tested on: Lindernia procumbens; assay: as above; conditions: one-leaf stage, 1000 g/ha as active ingredient, examined after 21 days
Summary of the method: as §1

[3] = tested on: Echinochloa crus-galli; assay: as above; conditions: one-leaf stage, 1000 g/ha as active ingredient, examined after 21 days
Summary of the method: as §1

[4] = tested on: Scirpus juncoides; assay: Herbicidal efficacy on paddy field weeds of pre-emergence stage (Pre), Test Example 1; conditions: 1000 g/ha as active ingredient, examined after 21 days
Summary of the method: (§2)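 Pre-emergence paddy test: 1000 g/ha active ingredient, formulated and water-diluted, dropped onto 5 cm floodwater one day after sowing both weeds in clay loam. After 21 days in greenhouse, inhibition relative to untreated control rated on 0 (0%) to 5 (100%) scale.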

[5] = tested on: Lindernia procumbens; assay: as above; conditions: 1000 g/ha as active ingredient, examined after 21 days
Summary of the method: as §2

Row | Structure (SMILES) | Scirpus juncoides post (herbicidal effect) [1] | Lindernia procumbens post (herbicidal effect) [2] | Echinochloa crus-galli post (herbicidal effect) [3] | Scirpus juncoides pre (herbicidal effect) [4] | Lindernia procumbens pre (herbicidal effect) [5]
1 | CCCC1(CC)CCN(Cc2ccccc2N(C(=O)Oc2ccccc2)S(=O)(=O)C(F)(F)F)C(=O)O1 (racemic) [Compound 1-501] | 4 (90%-99% herbicidal effect, phytotoxicity) | 5 (100% herbicidal effect, phytotoxicity) | 5 (100% herbicidal effect, phytotoxicity) | 5 (100% herbicidal effect, phytotoxicity) | 5 (100% herbicidal effect, phytotoxicity)
2 | O=C1OC(c2c(Cl)cccc2Cl)CCN1Cc1ccccc1NS(=O)(=O)C(F)(F)F (centres unmarked) [Compound 1-272] | 4 (90%-99% herbicidal effect, phytotoxicity) | 5 (100% herbicidal effect, phytotoxicity) | 4 (90%-99% herbicidal effect, phytotoxicity) | 4 (90%-99% herbicidal effect, phytotoxicity) | 5 (100% herbicidal effect, phytotoxicity)
3 | CCOC(=O)N(c1ccccc1CN1CCC(CC)(C(F)(F)F)OC1=O)S(=O)(=O)C(F)(F)F (centres unmarked) [Compound 1-93] | 4 (90%-99% herbicidal effect, phytotoxicity) | 5 (100% herbicidal effect, phytotoxicity) | 4 (90%-99% herbicidal effect, phytotoxicity) | 5 (100% herbicidal effect, phytotoxicity) | 5 (100% herbicidal effect, phytotoxicity)
4 | CCC1(C(F)(F)F)CCN(Cc2ccccc2N(C(=O)OCC(C)C)S(=O)(=O)C(F)(F)F)C(=O)O1 (centres unmarked) [Compound 1-96] | 4 (90%-99% herbicidal effect, phytotoxicity) | 5 (100% herbicidal effect, phytotoxicity) | 4 (90%-99% herbicidal effect, phytotoxicity) | 4 (90%-99% herbicidal effect, phytotoxicity) | 5 (100% herbicidal effect, phytotoxicity)
5 | CCOC(=O)N(c1ccccc1CN1CCC(C)(C(C)(C)C)OC1=O)S(=O)(=O)C(F)(F)F (centres unmarked) [Compound 1-329] | 4 (90%-99% herbicidal effect, phytotoxicity) | 5 (100% herbicidal effect, phytotoxicity) | 4 (90%-99% herbicidal effect, phytotoxicity) | 5 (100% herbicidal effect, phytotoxicity) | 5 (100% herbicidal effect, phytotoxicity)
6 | CCC1(C(C)C)CCN(Cc2ccccc2N(C(=O)OCC(C)C)S(=O)(=O)C(F)(F)F)C(=O)O1 (racemic) [Compound 1-455] | 4 (90%-99% herbicidal effect, phytotoxicity) | 5 (100% herbicidal effect, phytotoxicity) | 5 (100% herbicidal effect, phytotoxicity) | 5 (100% herbicidal effect, phytotoxicity) | 5 (100% herbicidal effect, phytotoxicity)
7 | CCC1(c2ccccc2)CCN(Cc2ccccc2NS(=O)(=O)C(F)(F)F)C(=O)O1 (centres unmarked) [Compound 1-316] | 4 (90%-99% herbicidal effect, phytotoxicity) | 5 (100% herbicidal effect, phytotoxicity) | 4 (90%-99% herbicidal effect, phytotoxicity) | 4 (90%-99% herbicidal effect, phytotoxicity) | 5 (100% herbicidal effect, phytotoxicity)
8 | CCC1(C(F)(F)F)CCN(Cc2ccccc2N(C(=O)OCCCl)S(=O)(=O)C(F)(F)F)C(=O)O1 (centres unmarked) [Compound 1-415] | 4 (90%-99% herbicidal effect, phytotoxicity) | 5 (100% herbicidal effect, phytotoxicity) | 5 (100% herbicidal effect, phytotoxicity) | 5 (100% herbicidal effect, phytotoxicity) | 5 (100% herbicidal effect, phytotoxicity)
9 | CCOC(=O)N(c1ccccc1CN1CC(C)(C)C(c2ccccc2)OC1=O)S(=O)(=O)C(F)(F)F (centres unmarked) [Compound 1-263] | 4 (90%-99% herbicidal effect, phytotoxicity) | 5 (100% herbicidal effect, phytotoxicity) | 4 (90%-99% herbicidal effect, phytotoxicity) | 4 (90%-99% herbicidal effect, phytotoxicity) | 5 (100% herbicidal effect, phytotoxicity)
10 | CCOC(=O)N(c1ccccc1CN1CCC(c2c(C)cccc2C)OC1=O)S(=O)(=O)C(F)(F)F (centres unmarked) [Compound 1-362] | 4 (90%-99% herbicidal effect, phytotoxicity) | 5 (100% herbicidal effect, phytotoxicity) | 4 (90%-99% herbicidal effect, phytotoxicity) | 4 (90%-99% herbicidal effect, phytotoxicity) | 5 (100% herbicidal effect, phytotoxicity)
11 | CC1(C)CCN(Cc2ccccc2N(C(=O)Oc2ccccc2)S(=O)(=O)C(F)(F)F)C(=O)O1 [Compound 1-506] | 4 (90%-99% herbicidal effect, phytotoxicity) | 5 (100% herbicidal effect, phytotoxicity) | 4 (90%-99% herbicidal effect, phytotoxicity) | 5 (100% herbicidal effect, phytotoxicity) | 5 (100% herbicidal effect, phytotoxicity)
12 | CCOC(=O)N(c1ccccc1CN1CCC(C)(Cc2ccccc2F)OC1=O)S(=O)(=O)C(F)(F)F (racemic) [Compound 1-463] | 4 (90%-99% herbicidal effect, phytotoxicity) | 5 (100% herbicidal effect, phytotoxicity) | 4 (90%-99% herbicidal effect, phytotoxicity) | 5 (100% herbicidal effect, phytotoxicity) | 5 (100% herbicidal effect, phytotoxicity)
13 | CCOC(=O)N(c1ccccc1CN1CCC(c2ccccc2C(F)(F)F)OC1=O)S(=O)(=O)C(F)(F)F (centres unmarked) [Compound 1-296] | 4 (90%-99% herbicidal effect, phytotoxicity) | 5 (100% herbicidal effect, phytotoxicity) | 4 (90%-99% herbicidal effect, phytotoxicity) | 4 (90%-99% herbicidal effect, phytotoxicity) | 5 (100% herbicidal effect, phytotoxicity)
14 | CCCOC(=O)N(c1ccccc1CN1CC(C)(C)COC1=O)S(=O)(=O)C(F)(F)F [Compound 1-26] | 4 (90%-99% herbicidal effect, phytotoxicity) | 4 (90%-99% herbicidal effect, phytotoxicity) | 4 (90%-99% herbicidal effect, phytotoxicity) | 4 (90%-99% herbicidal effect, phytotoxicity) | 4 (90%-99% herbicidal effect, phytotoxicity)
15 | CCC1(CC(C)C)CCN(Cc2ccccc2NS(=O)(=O)C(F)(F)F)C(=O)O1 (centres unmarked) [Compound 1-417] | 4 (90%-99% herbicidal effect, phytotoxicity) | 5 (100% herbicidal effect, phytotoxicity) | 4 (90%-99% herbicidal effect, phytotoxicity) | 5 (100% herbicidal effect, phytotoxicity) | 5 (100% herbicidal effect, phytotoxicity)
16 | COCN(c1ccccc1CN1CCC(C)(C)OC1=O)S(=O)(=O)C(F)(F)F [Compound 1-55] | 4 (90%-99% herbicidal effect, phytotoxicity) | 4 (90%-99% herbicidal effect, phytotoxicity) | 4 (90%-99% herbicidal effect, phytotoxicity) | 4 (90%-99% herbicidal effect, phytotoxicity) | 4 (90%-99% herbicidal effect, phytotoxicity)
17 | CCOC(=O)N(c1ccccc1CN1CCC(C)(C(F)(F)F)OC1=O)S(=O)(=O)C(F)(F)F (centres unmarked) [Compound 1-82] | 4 (90%-99% herbicidal effect, phytotoxicity) | 5 (100% herbicidal effect, phytotoxicity) | 4 (90%-99% herbicidal effect, phytotoxicity) | 5 (100% herbicidal effect, phytotoxicity) | 5 (100% herbicidal effect, phytotoxicity)
18 | CC(C)COC(=O)N(c1ccccc1CN1CCCOC1=S)S(=O)(=O)C(F)(F)F [Compound 1-17] | 4 (90%-99% herbicidal effect, phytotoxicity) | 4 (90%-99% herbicidal effect, phytotoxicity) | 4 (90%-99% herbicidal effect, phytotoxicity) | 4 (90%-99% herbicidal effect, phytotoxicity) | 4 (90%-99% herbicidal effect, phytotoxicity)
19 | CC1(C2CC2)CCN(Cc2ccccc2NS(=O)(=O)C(F)(F)F)C(=O)O1 (centres unmarked) [Compound 1-125] | 4 (90%-99% herbicidal effect, phytotoxicity) | 4 (90%-99% herbicidal effect, phytotoxicity) | 4 (90%-99% herbicidal effect, phytotoxicity) | 4 (90%-99% herbicidal effect, phytotoxicity) | 4 (90%-99% herbicidal effect, phytotoxicity)

Reference: patent US8048825B2, “Haloalkylsulfonanilide derivatives or salt thereof, herbicide comprising the derivatives as active ingredient, and use of the herbicide” (Nihon Nohyaku Co., Ltd., priority 2006, dated 2011)
